Legend:
[1] = target: T1, Serine/threonine-protein kinase DCLK2 (Homo sapiens) (UniProt Q8N568); experiment: Selectivity interaction (Kinase panel (Z-LYTE Assay)) EUB0001632a DCLK2; conditions: at 10 µM
T1 sequence (whole entry): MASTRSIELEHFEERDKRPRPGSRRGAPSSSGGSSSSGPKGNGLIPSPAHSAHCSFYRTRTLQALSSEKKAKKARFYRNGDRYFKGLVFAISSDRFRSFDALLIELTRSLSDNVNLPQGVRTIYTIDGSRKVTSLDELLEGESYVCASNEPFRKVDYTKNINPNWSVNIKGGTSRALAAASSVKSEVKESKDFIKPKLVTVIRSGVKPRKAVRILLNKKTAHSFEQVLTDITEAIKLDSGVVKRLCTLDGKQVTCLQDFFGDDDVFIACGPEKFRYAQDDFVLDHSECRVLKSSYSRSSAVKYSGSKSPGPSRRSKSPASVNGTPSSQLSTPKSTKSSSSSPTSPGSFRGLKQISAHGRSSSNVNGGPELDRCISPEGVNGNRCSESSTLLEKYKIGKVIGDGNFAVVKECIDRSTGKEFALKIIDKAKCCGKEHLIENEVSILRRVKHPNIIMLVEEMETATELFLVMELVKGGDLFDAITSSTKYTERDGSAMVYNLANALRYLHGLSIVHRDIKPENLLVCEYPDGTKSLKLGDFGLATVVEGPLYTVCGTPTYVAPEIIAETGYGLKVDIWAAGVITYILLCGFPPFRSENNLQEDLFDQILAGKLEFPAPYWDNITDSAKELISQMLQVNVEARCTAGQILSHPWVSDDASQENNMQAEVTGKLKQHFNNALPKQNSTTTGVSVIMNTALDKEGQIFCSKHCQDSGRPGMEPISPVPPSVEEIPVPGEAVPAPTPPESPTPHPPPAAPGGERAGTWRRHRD

[2] = target: T2, Dual specificity tyrosine-phosphorylation-regulated kinase 3 (Homo sapiens) (UniProt O43781); experiment: Selectivity interaction (ProQinase) EUB0000171b DYRK3
T2 sequence (whole entry): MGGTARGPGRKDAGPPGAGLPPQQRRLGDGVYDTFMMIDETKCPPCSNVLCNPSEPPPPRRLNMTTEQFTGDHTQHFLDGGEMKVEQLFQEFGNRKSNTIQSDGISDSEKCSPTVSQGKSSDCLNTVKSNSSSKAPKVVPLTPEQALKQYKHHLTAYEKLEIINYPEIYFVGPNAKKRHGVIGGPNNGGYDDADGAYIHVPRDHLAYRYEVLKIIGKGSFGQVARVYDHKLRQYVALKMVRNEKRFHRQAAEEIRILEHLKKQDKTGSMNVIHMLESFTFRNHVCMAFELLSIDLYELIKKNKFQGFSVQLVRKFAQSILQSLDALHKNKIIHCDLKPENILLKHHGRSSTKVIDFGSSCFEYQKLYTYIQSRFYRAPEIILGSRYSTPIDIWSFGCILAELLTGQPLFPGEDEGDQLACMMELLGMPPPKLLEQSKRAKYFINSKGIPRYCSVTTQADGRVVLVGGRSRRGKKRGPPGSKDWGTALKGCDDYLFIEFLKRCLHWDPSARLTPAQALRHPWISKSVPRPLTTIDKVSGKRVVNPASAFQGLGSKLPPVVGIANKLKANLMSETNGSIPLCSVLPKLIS

[3] = target: T3, Phosphatidylinositol 5-phosphate 4-kinase type-2 alpha (Homo sapiens) (UniProt P48426); conditions: at 1 µM
T3 sequence (whole entry): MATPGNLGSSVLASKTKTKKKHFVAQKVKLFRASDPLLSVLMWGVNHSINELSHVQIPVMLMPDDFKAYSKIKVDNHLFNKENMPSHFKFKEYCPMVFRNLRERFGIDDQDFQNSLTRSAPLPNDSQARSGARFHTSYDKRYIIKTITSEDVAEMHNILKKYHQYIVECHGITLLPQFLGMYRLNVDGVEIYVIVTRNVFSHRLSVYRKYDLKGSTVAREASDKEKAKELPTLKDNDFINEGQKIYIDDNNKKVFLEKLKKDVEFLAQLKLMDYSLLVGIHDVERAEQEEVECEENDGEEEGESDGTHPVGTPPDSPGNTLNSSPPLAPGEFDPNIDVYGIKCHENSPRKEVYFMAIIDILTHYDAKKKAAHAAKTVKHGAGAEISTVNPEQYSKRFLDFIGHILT

[4] = target: T4, Myotonin-protein kinase (Homo sapiens) (UniProt Q09013); experiment: Selectivity interaction (Kinase panel (Invitrogen)) EUB0000639a DMPK; conditions: at 200 nM
T4 sequence (whole entry): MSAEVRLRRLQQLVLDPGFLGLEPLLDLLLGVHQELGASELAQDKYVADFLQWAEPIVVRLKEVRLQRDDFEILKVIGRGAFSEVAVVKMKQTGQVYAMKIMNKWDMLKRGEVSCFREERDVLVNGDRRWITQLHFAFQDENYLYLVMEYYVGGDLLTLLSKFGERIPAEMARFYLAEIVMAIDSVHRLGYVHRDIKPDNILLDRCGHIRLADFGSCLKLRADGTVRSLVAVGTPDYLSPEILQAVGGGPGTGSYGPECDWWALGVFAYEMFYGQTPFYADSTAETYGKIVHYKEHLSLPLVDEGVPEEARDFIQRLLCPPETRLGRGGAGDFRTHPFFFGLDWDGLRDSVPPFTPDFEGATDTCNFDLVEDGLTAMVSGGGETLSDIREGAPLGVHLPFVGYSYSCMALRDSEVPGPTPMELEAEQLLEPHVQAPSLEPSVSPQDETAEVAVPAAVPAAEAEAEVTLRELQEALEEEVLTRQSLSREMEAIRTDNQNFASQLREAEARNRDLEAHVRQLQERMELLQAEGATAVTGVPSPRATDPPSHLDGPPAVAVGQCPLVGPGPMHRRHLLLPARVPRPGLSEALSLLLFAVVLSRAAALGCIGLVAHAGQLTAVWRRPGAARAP

With `Cn1cc(-n2cnc3c(NCc4nc5cc(Cl)c(Cl)cc5[nH]4)nc(N4CCOCC4)nc32)cn1` the % of control [1] was -1.8%.
In the case of `C=CC(=O)Nc1cccc(C(=O)Nc2ccc(Nc3cc(-c4[nH]c(SC)nc4C)ccn3)cc2)c1`, the % of control ([2]; at 1 µM) is reported as 82% and the % of control ([2]; at 5 µM) is reported as 39%.
For `CC[C@@H](Nc1c(C#N)c(-c2ccc(-c3cccc(C)c3F)cc2)nc2cnccc12)C(=O)O` [BAY-091], the % of inhibition [3] was 142%.
With `CC[C@@H]1[C@H](F)C(=O)N[C@@H]1COc1nccc2cc(C(N)=O)c(OC)cc12` [ZIMLOVISERTIB] the % of inhibition [4] was -0.603%.
